# Measurements as given in ChEMBL document CHEMBL5143716, “Design, Synthesis, and Optimization of Macrocyclic Peptides as Species-Selective Antimalaria Proteasome Inhibitors” (J Med Chem, 2022).
# Tests used:
# [1] = tested on: human MDR1 (P-gp); assay: Apparent permeability across apical to basolateral side in pig LLC-PK1 cells expressing human MDR1 at 10 uM measured after 60 mins by LC/MS/MS analysis; format: ADME, cell-based, Sus scrofa
# [2] = Kinetic solubility of compound in PBS at pH 6.8 incubated for 24 hrs by UPLC/MS analysis; format: physicochemical; conditions: read-out: Kinetic_solubility
# [3] = Permeability of the compound in PRISMA HT buffer at pH 7.4 at 10 uM incubated for 3 hrs by PAMPA based LC/MS/MS analysis; format: ADME; conditions: read-out: permeability
# [4] = AUC in mouse at […], iv administered as cassette dose; format: ADME, organism-based; design: dose 0.25 mg/kg, route iv; conditions: in vivo
# [5] = Hepatic blood flow in mouse at […], iv administered as cassette dose; format: ADME, organism-based; conditions: in vivo, dose 0.25 mg/kg
compound,measurement,setting,value
Cc1ccc(CNC(=O)[C@@H]2Cc3cccc(c3)Oc3cccc(c3)C[C@H](N)C(=O)N[C@@H](CCc3ccccc3)C(=O)N2)cc1,"Papp A→B at 1 h, 10 µM",[1],> 0.29 ×10⁻⁶ cm/s
same,solubility kinetic at 24 h,[2],< 1.6 µg/mL
O=C(NC1CCCC1)[C@@H]1CCCCOc2cccc(c2)C[C@H](N2CCCC2=O)C(=O)N[C@@H](CCN2CCOCC2)C(=O)N1,"Papp A→B at 1 h, 10 µM",[1],> 0.2 ×10⁻⁶ cm/s
same,"Papp at 3 h, 10 µM",[3],1.5 ×10⁻⁶ cm/s
same,solubility kinetic at 24 h,[2],> 130 µg/mL
CN[C@H]1Cc2cccc(c2)OCCCC[C@@H](C(=O)NC2CCCC2)NC(=O)[C@H](CCN2CCOCC2)NC1=O,"Papp A→B at 1 h, 10 µM",[1],> 0.2 ×10⁻⁶ cm/s
same,solubility kinetic at 24 h,[2],> 140 µg/mL
O=C(NC1CCCC1)[C@@H]1CCCCOc2cccc(c2)C[C@H](N2CCCC2=O)C(=O)N[C@@H](CCc2ccccc2)C(=O)N1,"Papp A→B at 1 h, 10 µM",[1],5.7 ×10⁻⁶ cm/s
same,"Papp at 3 h, 10 µM",[3],15.1 ×10⁻⁶ cm/s
same,solubility kinetic at 24 h,[2],100 µg/mL
O=C(NCC(F)(F)F)[C@@H]1COCCOc2cccc(c2)C[C@H](N2CCCC2=O)C(=O)N[C@@H](CCc2ccccc2)C(=O)N1,"Papp at 3 h, 10 µM",[3],12 ×10⁻⁶ cm/s
same,solubility kinetic at 24 h,[2],< 130 µg/mL
O=C(NC1(C(F)(F)F)CC1)[C@@H]1CCCCOc2cccc(c2)C[C@H](N2CCCC2=O)C(=O)N[C@@H](CCc2ccccc2)C(=O)N1,"Papp A→B at 1 h, 10 µM",[1],4.4 ×10⁻⁶ cm/s
same,"Papp at 3 h, 10 µM",[3],14.5 ×10⁻⁶ cm/s
same,solubility kinetic at 24 h,[2],31 µg/mL
CC(=O)N[C@H]1Cc2cccc(c2)Oc2cccc(c2)C[C@@H](C(=O)NCC(F)(F)F)NC(=O)[C@H](CCc2ccccc2)NC1=O,"Papp A→B at 1 h, 10 µM",[1],> 0.077 ×10⁻⁶ cm/s
same,solubility kinetic at 24 h,[2],< 1.4 µg/mL
O=C(NCC(F)(F)F)[C@@H]1CCCCOc2cccc(c2)C[C@H](N2CCCC2=O)C(=O)N[C@@H](CCc2ccccc2)C(=O)N1,"Papp A→B at 1 h, 10 µM",[1],5.3 ×10⁻⁶ cm/s
same,"Papp at 3 h, 10 µM",[3],18.7 ×10⁻⁶ cm/s
same,AUC,[4],0.6 ng·h/mL
same,QH,[5],93.33 mL/min/kg
same,solubility kinetic at 24 h,[2],76 µg/mL
O=C1N[C@H](c2nnc(C(F)(F)F)o2)CCCCOc2cccc(c2)C[C@H](N2CCCC2=O)C(=O)N[C@H]1CCc1ccccc1,"Papp A→B at 1 h, 10 µM",[1],1.1 ×10⁻⁶ cm/s
same,"Papp at 3 h, 10 µM",[3],16 ×10⁻⁶ cm/s
same,solubility kinetic at 24 h,[2],6.2 µg/mL
CN(C)[C@H]1Cc2cccc(c2)OCCCC[C@@H](C(=O)NC2CCCC2)NC(=O)[C@H](CCN2CCOCC2)NC1=O,"Papp A→B at 1 h, 10 µM",[1],0.12 ×10⁻⁶ cm/s
same,"Papp at 3 h, 10 µM",[3],2 ×10⁻⁶ cm/s
same,solubility kinetic at 24 h,[2],> 130 µg/mL
O=C(NCC1CC1)[C@@H]1CCCCOc2cccc(c2)C[C@H](N2CCCC2=O)C(=O)N[C@@H](CCc2ccccc2)C(=O)N1,"Papp A→B at 1 h, 10 µM",[1],6.8 ×10⁻⁶ cm/s
same,"Papp at 3 h, 10 µM",[3],10.3 ×10⁻⁶ cm/s
same,solubility kinetic at 24 h,[2],49 µg/mL
O=C(NCC(F)F)[C@@H]1CCCCOc2cccc(c2)C[C@H](N2CCCC2=O)C(=O)N[C@@H](CCc2ccccc2)C(=O)N1,"Papp A→B at 1 h, 10 µM",[1],> 1.1 ×10⁻⁶ cm/s
same,"Papp at 3 h, 10 µM",[3],7.2 ×10⁻⁶ cm/s
same,solubility kinetic at 24 h,[2],35 µg/mL
O=C(NCC(F)(F)F)[C@@H]1Cc2cccc(c2)Oc2cccc(c2)C[C@H](N2CCCC2=O)C(=O)N[C@@H](CCc2ccccc2)C(=O)N1,solubility kinetic at 24 h,[2],3.8 µg/mL
Cn1cc(CNC(=O)[C@@H]2CCCCOc3cccc(c3)C[C@H](N3CCCC3=O)C(=O)N[C@@H](CCc3ccccc3)C(=O)N2)cn1,"Papp A→B at 1 h, 10 µM",[1],> 0.6 ×10⁻⁶ cm/s
same,"Papp at 3 h, 10 µM",[3],1.1 ×10⁻⁶ cm/s
same,solubility kinetic at 24 h,[2],> 120 µg/mL
CC(=O)N[C@H]1Cc2cccc(c2)Oc2cccc(c2)C[C@@H](C(=O)NCc2ccc(C)cc2)NC(=O)[C@H](CCc2ccccc2)NC1=O,"Papp A→B at 1 h, 10 µM",[1],> 3.4 ×10⁻⁶ cm/s
same,"Papp at 3 h, 10 µM",[3],2.2 ×10⁻⁶ cm/s
O=C(NC1CCCC1)[C@@H]1CCCCOc2cccc(c2)C[C@H](N2CCC2)C(=O)N[C@@H](CCN2CCOCC2)C(=O)N1,"Papp A→B at 1 h, 10 µM",[1],> 0.2 ×10⁻⁶ cm/s
same,solubility kinetic at 24 h,[2],> 140 µg/mL
CC1(C)Cc2cccc(c2)OCCCC[C@@H](C(=O)NC2CCCC2)NC(=O)[C@H](CCN2CCOCC2)NC1=O,"Papp A→B at 1 h, 10 µM",[1],3.5 ×10⁻⁶ cm/s
same,"Papp at 3 h, 10 µM",[3],26.9 ×10⁻⁶ cm/s
same,solubility kinetic at 24 h,[2],90 µg/mL
O=C(NC1CCCC1)[C@@H]1CCCCOc2cccc(c2)C[C@H](N2CCCC2=O)C(=O)N[C@@H](CCN2CCC(F)(F)CC2)C(=O)N1,"Papp A→B at 1 h, 10 µM",[1],4 ×10⁻⁶ cm/s
same,"Papp at 3 h, 10 µM",[3],13.3 ×10⁻⁶ cm/s
same,solubility kinetic at 24 h,[2],> 130 µg/mL
O=C(NC1CCCC1)[C@@H]1CCCCOc2cccc(c2)CC2(COC2)C(=O)N[C@@H](CCN2CCOCC2)C(=O)N1,"Papp A→B at 1 h, 10 µM",[1],> 2.8 ×10⁻⁶ cm/s
same,"Papp at 3 h, 10 µM",[3],8.9 ×10⁻⁶ cm/s
same,solubility kinetic at 24 h,[2],68 µg/mL
O=C(NC1CCCC1)[C@@H]1CCCCOc2cccc(c2)C[C@H](N2CCCC2=O)C(=O)N[C@@H](COc2ccccc2)C(=O)N1,"Papp at 3 h, 10 µM",[3],20.8 ×10⁻⁶ cm/s
same,solubility kinetic at 24 h,[2],20 µg/mL
O=C1N[C@H](c2nnc(C(F)(F)F)[nH]2)CCCCOc2cccc(c2)C[C@H](N2CCCC2=O)C(=O)N[C@H]1CCc1ccccc1,"Papp A→B at 1 h, 10 µM",[1],> 2.1 ×10⁻⁶ cm/s
same,"Papp at 3 h, 10 µM",[3],8.2 ×10⁻⁶ cm/s
same,solubility kinetic at 24 h,[2],2 µg/mL
O=C(NC1CCCC1)[C@@H]1CCCCOc2cccc(c2)C[C@H](N2CCCC2=O)C(=O)N[C@@H](CCc2ccc(F)cc2)C(=O)N1,"Papp A→B at 1 h, 10 µM",[1],4.5 ×10⁻⁶ cm/s
same,"Papp at 3 h, 10 µM",[3],21.2 ×10⁻⁶ cm/s
same,solubility kinetic at 24 h,[2],17 µg/mL
